For assay [1], the system named is RAW264.7. Put plainly: Anti-inflammatory activity in mouse RAW264.7 cells assessed as inhibition of LPS-induced NO production at 10 uM preincubated with compound for 24 hrs followed by LPS stimulation by Griess reagent based analysis relative to control. The assay is classed as functional. Further details: scale not given: the % may be the effect or the level left. For orientation: Nitrite, measured by Griess reagent, commonly stands in for NO production.

Assay [2] deals with T1, Bromodomain-containing protein 4 (Homo sapiens, UniProt O60885). Kind of assay: Inhibition of human recombinant BRD4 BD2 (349 to 460 residues) extracted from Escherichia coli BL21 (DE3) at 10 uM incubated for 2 hrs by TR-FRET assay relative to control. Background: In TR-FRET formats the signal depends on donor and acceptor labels being close together.
The target in assay [3] is T1, Bromodomain-containing protein 4. Kind of assay: Inhibition of human recombinant BRD4 BD2 (349 to 460 residues) extracted from Escherichia coli BL21 (DE3) incubated for 2 hrs by TR-FRET assay.
For assay [4] the target is unchanged. Put plainly: Inhibition of human recombinant BRD4 BD1 (42 to 167 residues) extracted from Escherichia coli BL21 (DE3) incubated for 2 hrs by TR-FRET assay.
The target is the same in assay [5]. Kind of assay: Inhibition of human recombinant BRD4 BD1 (42 to 167 residues) extracted from Escherichia coli BL21 (DE3) at 10 uM incubated for 2 hrs by TR-FRET assay relative to control.
The target is the same in assay [6]. Put plainly: Selectivity index, ratio of IC50 for human recombinant BRD4 BD1 (42 to 167 residues) extracted from Escherichia coli BL21 (DE3) to IC50 for human recombinant BRD4 BD2 (349 to 460 residues) extracted from Escherichia coli BL21 (DE3).
Assay [7] relates to RAW264.7. Kind of assay: Anti-inflammatory activity in mouse RAW264.7 cells assessed as inhibition of LPS-induced IL-6 expression preincubated with compound for 2 hrs followed by LPS stimulation and measured after 6 hrs by RT-qPCR analysis. The following applies: dose 2.5-20 µM, time 8.0 hrs. It counts as functional, cell-based. A general note: Quantitative PCR measures a nucleic acid by following its amplification.

Assay [8] has as its system THP-1. Kind of assay: Anti-inflammatory activity in human THP-1 cells assessed as inhibition of LPS-induced IL-6 expression preincubated with compound for 2 hrs followed by LPS stimulation and measured after 6 hrs by RT-qPCR analysis. The assay is classed as functional, cell-based. The following applies: dose 2.5-20 µM, time 8.0 hrs.
The test system of assay [9] is RAW264.7. Put plainly: Anti-inflammatory activity in mouse RAW264.7 cells assessed as inhibition of LPS-induced NO production preincubated with compound for 24 hrs followed by LPS stimulation by Griess reagent based analysis. It counts as functional, cell-based.
For assay [10], the system named is RAW264.7. Kind of assay: Anti-inflammatory activity in mouse RAW264.7 cells assessed as inhibition of LPS-induced TNF-alpha expression preincubated with compound for 2 hrs followed by LPS stimulation and measured after 6 hrs by RT-qPCR analysis. Particulars: dose 2.5-20 µM, time 8.0 hrs. It counts as functional, cell-based.
Assay [11] relates to THP-1. Put plainly: Anti-inflammatory activity in human THP-1 cells assessed as inhibition of LPS-induced TNF-alpha expression preincubated with compound for 2 hrs followed by LPS stimulation and measured after 6 hrs by RT-qPCR analysis. The assay is classed as functional, cell-based. Particulars: dose 2.5-20 µM, time 8.0 hrs.
Assay [12] addresses T1, Bromodomain-containing protein 4. Kind of assay: Inhibition of BRD4 (unknown origin).

Active and inactive are the calls of the source. No cut-off for these calls is given here.

The results in this text go back to ChEMBL document CHEMBL6121006, “Marine natural product-inspired discovery of novel BRD4 inhibitors with anti-inflammatory activity” (Eur J Med Chem, 2025).

By inhibition is commonly meant the drop in the measured response relative to a control, in per cent. For orientation: IC50 means the concentration that gives 50% inhibition.

Consider `COc1ccc(C(=O)c2nc3cc(OC)c(I)c(OC)c3c(=O)[nH]2)cc1`, for which the Activity in [1] came to 14%. Moreover, the inhibition in assay [2] was found to be 53%; in assay [5], 10%. Besides, the IC50 in assay [3] and in assay [4] was more than 10 µM throughout.

Turning to `COc1cc(OC)c2c(=O)[nH]c(C(=O)c3ccc(OCCO)cc3)nc2c1`, the inhibition is 48% in assay [2] and 1.3% in assay [5].

With `COc1cc(OC)c2c(=O)[nH]c(C(=O)c3cccc(C#N)c3)nc2c1`, the inhibition turned out to be 48% in [2] and 12% in assay [5].

Consider `COc1cc(OC)c2c(=O)[nH]c(/C=C/c3ccc(N(C)C)cc3)nc2c1`, for which the Activity in assay [1] turned out to be 24%. Further, the Ratio IC50 in assay [6] is more than 21. Moreover, the inhibition in assay [2] came out at 74%; in assay [5], 24%. The IC50 in [3] was 0.47 µM; in assay [4], more than 10 µM.

`O=C(c1ccc(O)cc1)c1nc2ccccc2c(=O)[nH]1`: the inhibition in assay [2] came to 11%; in assay [5] it was 17%.

Take `COc1cc(OC)c2c(=O)[nH]c(-c3cc(C)c(OCCO)c(C)c3)nc2c1` [APABETALONE]: the Activity result was “Dose-dependent-effect” in [7]; 74% in assay [1]; “Dose-dependent-effect” in assay [8]; “Dose-dependent-effect” in assay [10]; “Dose-dependent-effect” in [11]. Moreover, in assay [2], the inhibition was 99%. Also, the IC50 in assay [9] worked out at 8.76 µM.

On to `COc1cc(C(=O)c2nc3ccccc3c(=O)[nH]2)cc(OC)c1OC`, for which the inhibition is 15% in assay [2] and 22% in assay [5].

As for `COc1cc(OC)c2c(=O)[nH]c(CC(C)c3ccc(C(C)(C)C)cc3)nc2c1` (stereo not given), in [1], the Activity worked out at 3.4%. Besides, the Ratio IC50 in assay [6] was more than 13. In addition, the inhibition in assay [2] was 97%; in assay [5], 54%. Moreover, the 50% inhibitory concentration (IC50) is 0.74 µM in assay [3] and more than 10 µM in [4].

In the case of `COc1cc(OC)c2c(=O)[nH]c(C(=O)c3ccc(F)cc3)nc2c1`, in assay [1], the Activity is 18%. Further, the Ratio IC50 in [6] was more than 10. The inhibition in assay [2] came out at 52%. In [3], the IC50 was determined as 1.84 µM. Besides, the inhibition result in [4] and in assay [5] was “inactive” in each case.

For the compound `COc1cc(OC)c2c(=O)[nH]c(/C(C)=C/c3ccccc3)nc2c1`, the Activity in assay [1] was determined as 6.8%. The Ratio IC50 in assay [6] is more than 7. Besides, the results for the inhibition in assay [2] and in assay [5] were 59% and 20%, respectively. Besides, the IC50 in [3] is 1.33 µM; in assay [4], more than 10 µM.

`COc1ccc(Cc2nc3cc(OC)cc(OC)c3c(=O)[nH]2)cc1`: in assay [1], the Activity was 15%. The Ratio IC50 in [6] stood at 3. The inhibition amounted to 75% in [2] and 56% in assay [5]. The IC50 in assay [3] worked out at 1.52 µM; in assay [4], 4.59 µM.

Turning to `COc1cc(OC)c2c(=O)[nH]c(C(=O)c3cc(OC)c(OC)c(OC)c3)nc2c1`, the inhibition is 17% in assay [2] and 11% in assay [5].

In the case of `COc1ccc(CCc2nc3cc(OC)cc(OC)c3c(=O)[nH]2)cc1`, in assay [1], the Activity is reported as 17%. Further, in assay [6], the Ratio IC50 was more than 13. In addition, the inhibition in [2] came out at 86%; in assay [5], 12%. Also, the IC50 is 0.74 µM in assay [3] and more than 10 µM in [4].

In the case of `COc1cc(OC)c2c(=O)[nH]c(/C=C/c3ccc(Cl)cc3)nc2c1`, in [1], the Activity is on record as 11%. Besides, the values for the inhibition in [2] and in assay [5] were 54% and 23%, respectively. In addition, the IC50 in assay [3] and in assay [4] was more than 10 µM each time.

Take `C[C@@H]1C[C@H]2[C@@H]3CCC4=CC(=O)C=C[C@]4(C)[C@@]3(F)[C@@H](O)C[C@]2(C)[C@@]1(O)C(=O)CO` [DEXAMETHASONE]: in assay [1], the Activity turned out to be 29%.

`COc1ccc(C(=O)c2nc3cc(OC)cc(OC)c3c(=O)[nH]2)cc1`: in assay [1], the Activity is reported as 6.4%. In addition, the Ratio IC50 in [6] is more than 10. In addition, in [2], the inhibition was determined as 51%. Further, the IC50 in assay [3] was found to be 3.93 µM. In addition, the inhibition result in assay [4] and in assay [5] was “inactive” throughout.

With `O=C(c1ccc2ccccc2c1)c1nc2ccccc2c(=O)[nH]1`, the inhibition in [2] came out at 17%; in assay [5], 16%.

`COc1cccc(/C=C/c2nc3cc(OC)cc(OC)c3c(=O)[nH]2)c1`: the Activity in assay [1] stood at 78%. Also, the inhibition in assay [2] stood at 67%. Also, the IC50 was more than 10 µM in [3] and 5.22 µM in assay [9]. Moreover, the inhibition result in assay [4] and in assay [5] was “inactive” each time.

In the case of `Cc1nnn(C)c1-c1cnc2c3cc4cnn(C)c4cc3n([C@H](c3ccccc3)C3CCOCC3)c2c1`, the IC50 in assay [12] amounted to 0.00245 µM.

As to `COc1cc(OC)c2c(=O)[nH]c(C(=O)c3ccc(OC)c(OC)c3)nc2c1`, the inhibition in assay [2] was 47%; in assay [5] it was 13%.

As for `COc1ccc(C(=O)c2nc3ccccc3c(=O)[nH]2)cc1`, the Activity in assay [1] was found to be 5.4%. The inhibition is 42% in assay [2] and 54% in [5]. Besides, in assay [4], the IC50 worked out at 2.16 µM.

As to `COc1cc(OC)c2c(=O)[nH]c(C(=O)c3cc(F)ccc3F)nc2c1`, the inhibition in assay [2] is 46%; in [5], 10%.

For the compound `COc1cc(OC)c2c(=O)[nH]c(C(=O)c3cccc(C(F)(F)F)c3)nc2c1`, in [1], the Activity was 12%. The inhibition is 53% in assay [2] and 13% in [5]. The IC50 in assay [3] and in assay [4] was more than 10 µM throughout.

Consider `COc1cc(OC)c2c(=O)[nH]c(C=C(c3ccccc3)c3ccccc3)nc2c1`, for which the Activity in assay [1] stood at 21%. Besides, the Ratio IC50 in assay [6] is more than 1. The inhibition in [2] was found to be 66%; in assay [5], 3.1%. Further, the IC50 in assay [3] is 7.06 µM; in assay [4], more than 10 µM.

Regarding `COc1cc(OC)c2c(=O)[nH]c(/C=C/c3cc(OC)c(O)c(OC)c3)nc2c1`, the Activity in assay [1] is recorded as 18%. In addition, in assay [6], the Ratio IC50 is more than 26. Further, the inhibition in assay [2] worked out at 98%; in [5] it was 13%. Also, the IC50 in assay [3] is 0.39 µM; in [4], more than 10 µM.

Take `COc1cc(OC)c2c(=O)[nH]c(C3CCN(Cc4ccccc4)CC3)nc2c1`: the Activity in assay [1] came to 89%. In addition, the inhibition in assay [2] was found to be 46%; in assay [5] it was 51%. The concentration for half-maximal inhibition (IC50) in assay [3] was more than 10 µM; in [4], 7.87 µM; in assay [9], 6.78 µM.
